Format in all cases: cell-based
What all share (conditions): PBMC, human PBMCs, 24 hours incubation

One test concerns TNFα. In words: PBMC cytokine profiling assay, TNFα induction. The protocol: (§1) Certain compounds disclosed herein we tested according to the procedure described below. Additionally, certain reference compounds were prepared and tested along with the compounds of the present disclosure.
(§2) Compounds were dissolved and stored in DMSO (Sigma-Aldrich, St. Louis, MO) at 10 mM concentration.
(§3) Cryopreserved human PBMCs isolated from healthy donors were purchased from StemCell Technologies (Vancouver, Canada). Cell culture medium used was RPMI with L-Glutamine (Mediatech, Manassas, VA) supplemented with 10% fetal bovine serum (Hyclone, GE Healthcare, Logan, UT) and Penicillin-Streptomycin (Mediatech). Human TNFα, IL12p40, and IFNα2a 384-well Assay capture plates, standards, buffers and processing reagents were obtained from MesoScale Discovery Technologies (MSD; Rockville, MD).
(§4) Cryopreserved human PBMCs (1×10e8 cells/ml) were thawed at 37° C. and resuspended in 25 mL warm cell culture medium. The cells were pelleted at 200×g (Beckman Avanti J-E) for 5 min and resuspended in 20 mL of fresh culture media. Cells were counted using a Cellometer (Nexcelcom Bioscience), adjusted to 2×10e6 cells, and incubated for 2 hours in an incubator set at 37° C., 5% CO2 to recover from cryopreservation. Compounds were serially diluted in DMSO at half-log steps to generate a 10-point dose range. Using a Bravo pipette equipped with a 384 well head (Agilent), 0.4 μL of compound was transferred to each well of a 384 well black, clear bottom plate (Greiner Bio-One, Germany) containing 30 μL of cell culture medium. Recovered PBMCs were then dispensed into the assay plate at 50 μL per well (100k cells/well) using the MicroFlow multichannel dispenser (Biotek). Final DMSO concentration was 0.5%. DMSO was used as the negative control. The plates were incubated for 24 hours at 37° C. PBMCs in the assay plate were pelleted by centrifugation (Beckman Avanti J-E) at 200×g for 5 min.
(§5) Using a Biomek FX 384 well pipetting station (Beckman), conditioned culture medium (CCM) from the assay plate was transferred to MSD capture plates customized for each cytokine. For IFNα and IL12-p40 detection, 25 μL and 20 μL of CCM were added directly to each capture plate, respectively. For TNFα detection, CCM was diluted 1:9 in fresh culture medium, and 20 μL of diluted CCM was used. Serially diluted calibration standards for each cytokine were used to generate standard curves and establish assay linearity. The plates were sealed and incubated overnight at 4° C. in a plate shaker (Titer Plate) set at 200 rpm. On the following day, antibodies specific for each cytokine were diluted 1:50 in MSD Diluent 100 antibody dilution buffer. Diluted antibodies were added to corresponding capture plates at 10 μL/well, and incubated at RT for 1-2 hrs in the shaker. The plates were washed with PBST buffer (3×, 60 μl/well) using a Biotek Multiflow plate washer. MSD Read Buffer diluted to 2× in deionized water and 35 μL/well was added via Biomek FX instrument. The plates were read immediately in a MSD6000 reader. Data were normalized to positive and negative controls in each assay plate. AC50 values represent compound concentrations at half-maximal effect based on normalized percent activation and calculated by non-linear regression using Pipeline Pilot software (Accelrys, San Diego, CA).

A further test relates to IFNα. In words: PBMC cytokine profiling assay, IFNα induction. Here is the method: as §1, §2, §3, §4, §5
The next test has as its system IL12p40. The test is described as follows: PBMC cytokine profiling assay, IL12-p40 induction. The protocol:
as §1, §2, §3, §4, §5

With `CCC[C@@H](CO)Nc1nc(N)nc2c(C)ccnc12` [Example 26E, (S)-2-((2-amino-8-methylpyrido[3,2-d]pyrimidin-4-yl)amino)pentan-1-ol], the AC50 in the test with TNFα (Homo sapiens, 24 h) stood at 2.3 µM; in the test with IFNα (Homo sapiens, 24 h), 13.5 µM; with IL12p40 (Homo sapiens, 24 h), 1.7 µM.
The corresponding values for `CCC[C@@H](CO)Nc1nc(N)nc2cccnc12` [Example 27C, (S)-2-((2-amino-[3,2-d]pyrimidin-4-yl)amino)pentan-1-ol] are 0.52 µM, 2 µM and 0.42 µM.
The corresponding values for `CCC[C@H](Nc1nc(N)nc2cccnc12)C(F)(F)F` [Example 28, (S)—N^4-(1,1,1-trifluoropentan-2-yl)pyrido[3,2-d]pyrimidine-2,4-diamine] are 28.6 µM, 45 µM and 28.2 µM.
The matching figures for `Nc1nc(NCCCC(F)(F)F)c2ncccc2n1` [Example 29, N^4-(4,4,4-trifluorobutyl)pyrido[3,2-d]pyrimidine-2,4-diamine]: 18.3 µM, 3.9 µM and 15.5 µM.
Consider `CCC[C@H](Nc1nc(N)nc2cccnc12)C(N)=O` [Example 30B, (S)-2-((2-aminopyrido[3,2-d]pyrimidin-4-yl)amino)pentanamide], for which the AC50 in the test with TNFα (Homo sapiens, 24 h) is 10.6 µM; with IFNα (Homo sapiens, 24 h) it was more than 50 µM; in the test on IL12p40 (Homo sapiens, 24 h), 8.6 µM.
Regarding `CCC[C@H](Nc1nc(N)nc2cccnc12)C(=O)NC` [Example 31, (S)-2-((2-aminopyrido[3,2-d]pyrimidin-4-yl)amino)-N-methylpentanamide], the concentration at half-maximal activity (AC50) stood at 4.7 µM in the test with TNFα (Homo sapiens, 24 h); 32.9 µM in the test with IFNα (Homo sapiens, 24 h); 4.7 µM in the test on IL12p40 (Homo sapiens, 24 h).
As to `CCCCNc1nc(N)nc2ccc(C(F)(F)F)nc12` [Example 32, N^4-butyl-6-(trifluoromethyl)pyrido[3,2-d]pyrimidine-2,4-diamine], the AC50 was more than 50 µM in the test with TNFα (Homo sapiens, 24 h); more than 50 µM with IFNα (Homo sapiens, 24 h); more than 50 µM in the test on IL12p40 (Homo sapiens, 24 h).
Regarding `CCC[C@@H](CO)Nc1nc(N)nc2ccc(C)nc12` [Example 33, (S)-2-((2-amino-6-methylpyrido[3,2-d]pyrimidin-4-yl)amino)pentan-1-ol], the AC50 in the test on TNFα (Homo sapiens, 24 h) was determined as 0.92 µM; with IFNα (Homo sapiens, 24 h), 5.9 µM; in the test on IL12p40 (Homo sapiens, 24 h), 0.85 µM.
Take `CCC[C@H](Nc1nc(N)nc2cccnc12)C(=O)NCCO` [Example 34, (S)-2-((2-aminopyrido[3,2-d]pyrimidin-4-yl)amino)-N-(2-hydroxyethyl)pentanamide]: the AC50 in the test with TNFα (Homo sapiens, 24 h) is 12.2 µM; in the test on IFNα (Homo sapiens, 24 h), more than 50 µM; with IL12p40 (Homo sapiens, 24 h), 10.9 µM.
Regarding `CCC[C@H](Nc1nc(N)nc2cccnc12)C(=O)NCC(C)(C)O` [Example 35, (S)-2-((2-aminopyrido[3,2-d]pyrimidin-4-yl)amino)-N-(2-hydroxy-2-methylpropyl)pentanamide], the AC50 in the test on TNFα (Homo sapiens, 24 h) is 39.4 µM; in the test with IFNα (Homo sapiens, 24 h), more than 50 µM; in the test on IL12p40 (Homo sapiens, 24 h), 22.6 µM.
The corresponding values for `CCC[C@H](Nc1nc(N)nc2cccnc12)C(=O)NCCN` [Example 36, (S)—N-(2-aminoethyl)-2-((2-aminopyrido[3,2-d]pyrimidin-4-yl)amino)pentanamide] are 21.5 µM, more than 50 µM and 10.8 µM.
Regarding `CCC[C@H](Nc1nc(N)nc2cccnc12)C(=O)NCc1ccccn1` [Example 37, (S)-2-((2-aminopyrido[3,2-d]pyrimidin-4-yl)amino)-N-(pyridin-2-ylmethyl)pentanamide], the AC50 with TNFα (Homo sapiens, 24 h) is more than 50 µM; in the test on IFNα (Homo sapiens, 24 h), more than 50 µM; in the test on IL12p40 (Homo sapiens, 24 h), more than 50 µM.
Take `CCC[C@H](CO)Nc1nc(N)nc2ccc(C)nc12` [Example 38C, (R)-2-((2-amino-6-methylpyrido[3,2-d]pyrimidin-4-yl)amino)pentan-1-ol]: the AC50 in the test with TNFα (Homo sapiens, 24 h) is more than 50 µM; in the test on IFNα (Homo sapiens, 24 h) it was more than 50 µM; in the test on IL12p40 (Homo sapiens, 24 h), more than 50 µM.
With `CCCC[C@H](CO)Nc1nc(N)nc2ccc(C)nc12` [Example 39C, (R)-2-((2-amino-6-methylpyrido[3,2-d]pyrimidin-4-yl)amino)hexan-1-ol], the AC50 in the test with TNFα (Homo sapiens, 24 h) is more than 50 µM; in the test with IFNα (Homo sapiens, 24 h), more than 50 µM; with IL12p40 (Homo sapiens, 24 h), 41.5 µM.
Turning to `CCCC[C@@H](CO)Nc1nc(N)nc2ccc(C)nc12` [Example 40C, (S)-2-((2-amino-6-methylpyrido[3,2-d]pyrimidin-4-yl)amino)hexan-1-ol], the half-maximal activity concentration (AC50) in the test on TNFα (Homo sapiens, 24 h) worked out at 0.94 µM; in the test on IFNα (Homo sapiens, 24 h), 2.4 µM; in the test with IL12p40 (Homo sapiens, 24 h) it was 0.87 µM.
The corresponding values for `CCCCNc1nc(N)nc2cc(Cl)cnc12` [Example 41, N^4-butyl-7-chloropyrido[3,2-d]pyrimidine-2,4-diamine] are 11 µM, 13 µM and 9.1 µM.
The matching figures for `CCC[C@@H](CO)Nc1nc(N)nc2cc(OC)cnc12` [Example 42B, (S)-2-((2-amino-7-methoxypyrido[3,2-d]pyrimidin-4-yl)amino)pentan-1-ol]: 1.1 µM, 3.6 µM and 0.9 µM.
On to `CCC[C@@H](CO)Nc1nc(N)nc2cc(F)cnc12` [Example 43C, (S)-2-((2-amino-7-fluoropyrido[3,2-d]pyrimidin-4-yl)amino)pentan-1-ol], for which the AC50 in the test on TNFα (Homo sapiens, 24 h) worked out at 1.1 µM; in the test on IFNα (Homo sapiens, 24 h), 10.9 µM; in the test on IL12p40 (Homo sapiens, 24 h), 1 µM.
The matching figures for `CCCC[C@H](CO)Nc1nc(N)nc2cc(F)cnc12` [Example 44, (R)-2-((2-amino-7-fluoropyrido[3,2-d]pyrimidin-4-yl)amino)hexan-1-ol]: 3 µM, more than 50 µM and 2.4 µM.
Regarding `CCCC[C@@H](CO)Nc1nc(N)nc2cc(F)cnc12` [Example 45, (S)-2-((2-amino-7-fluoropyrido[3,2-d]pyrimidin-4-yl)amino)hexan-1-ol], the AC50 with TNFα (Homo sapiens, 24 h) turned out to be 1.6 µM; with IFNα (Homo sapiens, 24 h) it was 8.3 µM; with IL12p40 (Homo sapiens, 24 h), 1.3 µM.
For the compound `CCCC[C@H](CO)Nc1nc(N)nc2cc(F)c(F)cc12` [Example 46C, (R)-2-((2-amino-6,7-difluoroquinazolin-4-yl)amino)hexan-1-ol], the AC50 with TNFα (Homo sapiens, 24 h) is 28.6 µM; in the test on IFNα (Homo sapiens, 24 h) it was more than 50 µM; in the test with IL12p40 (Homo sapiens, 24 h) it was 28.5 µM.
Take `CCCC[C@H](CO)Nc1nc(N)nc2ccccc12` [Example 47B, (R)-2-((2-aminoquinazolin-4-yl)amino)hexan-1-ol]: the AC50 in the test with TNFα (Homo sapiens, 24 h) was 2.7 µM; in the test on IFNα (Homo sapiens, 24 h) it was more than 50 µM; with IL12p40 (Homo sapiens, 24 h) it was 2 µM.
On to `CCCC[C@@H](CO)Nc1nc(N)nc2ccccc12` [Example 48, (S)-2-((2-aminoquinazolin-4-yl)amino)hexan-1-ol], for which the AC50 came out at 0.85 µM in the test with TNFα (Homo sapiens, 24 h); 0.57 µM in the test on IFNα (Homo sapiens, 24 h); 0.71 µM with IL12p40 (Homo sapiens, 24 h).
As for `C[C@@H](CN)Nc1nc(N)nc2cccnc12` [Example 49, (S)—N^4-(1-aminopropan-2-yl)pyrido[3,2-d]pyrimidine-2,4-diamine], the AC50 in the test on TNFα was found to be 22.4 µM; in the test on IFNα it was 41.6 µM; in the test on IL12p40 it was 18.1 µM.
As to `CCCC[C@H](CN)Nc1nc(N)nc2cccnc12` [Example 50, (R)—N^4-(1-aminohexan-2-yl)pyrido[3,2-d]pyrimidine-2,4-diamine], the concentration at half-maximal activity (AC50) in the test with TNFα (Homo sapiens, 24 h) was 26.9 µM; in the test on IFNα (Homo sapiens, 24 h), more than 50 µM; in the test on IL12p40 (Homo sapiens, 24 h), 23.1 µM.
In the case of `CCCC[C@H](CNS(C)(=O)=O)Nc1nc(N)nc2cccnc12` [Example 52, (R)—N-(2-((2-aminopyrido[3,2-d]pyrimidin-4-yl)amino)hexyl)methanesulfonamide], the AC50 was 3.2 µM in the test with TNFα (Homo sapiens, 24 h); more than 50 µM in the test with IFNα (Homo sapiens, 24 h); 3.6 µM in the test with IL12p40 (Homo sapiens, 24 h).
With `CCCC[C@](C)(CNS(C)(=O)=O)Nc1nc(N)nc2cccnc12` [Example 53, (R)—N-(2-((2-aminopyrido[3,2-d]pyrimidin-4-yl)amino)-2-methylhexyl)methanesulfonamide], the AC50 in the test on TNFα (Homo sapiens, 24 h) is 0.26 µM; in the test with IFNα (Homo sapiens, 24 h), 3.9 µM; in the test with IL12p40 (Homo sapiens, 24 h), 0.28 µM.

These data come from patent US12377100B2 (GILEAD SCIENCES, INC., priority 2015, dated 2025).
